This note sets out measurements from patent US20150239831A1, “INHIBITORS OF CENTRAL NERVOUS SYSTEM VASOACTIVE INHIBITORY PEPTIDE RECEPTOR 2” (The Trustees Of Columbia University In The City Of New York, priority 2012, published 2015).

Common to all, as to type: cell-based
Parameters in all cases: expressed in transfected cells; host or cells: HEK293 cells transfected with VIPR2 in pCDNA3.1 (as described)

The target of assay [1] is T1, VIPR2 (Homo sapiens, UniProt P41587).
T1 sequence (P41587 24-438): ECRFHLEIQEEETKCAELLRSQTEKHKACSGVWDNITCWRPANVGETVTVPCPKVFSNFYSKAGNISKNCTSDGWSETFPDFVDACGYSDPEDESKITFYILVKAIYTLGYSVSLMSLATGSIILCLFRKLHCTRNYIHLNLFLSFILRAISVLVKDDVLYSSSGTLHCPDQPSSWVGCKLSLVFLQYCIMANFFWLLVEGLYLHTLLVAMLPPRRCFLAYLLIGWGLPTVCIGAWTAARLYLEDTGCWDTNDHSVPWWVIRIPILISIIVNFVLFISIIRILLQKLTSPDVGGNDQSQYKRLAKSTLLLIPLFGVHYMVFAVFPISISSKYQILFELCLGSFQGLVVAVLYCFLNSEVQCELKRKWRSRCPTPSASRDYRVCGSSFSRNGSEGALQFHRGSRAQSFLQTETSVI
Description: Inhibition of VIP-induced β-arrestin recruitment (% Activity Arrestin). The conditions noted are these: Batch 1. The essentials: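 HEK293 cells stably expressing β-arrestin2–β-gal EA, transiently transfected with ProLink-tagged hVIPR2, plated overnight; inhibitor added for 2 h at 37 °C, 5% CO2. Receptor–arrestin complementation read by chemiluminescence after 5 min–1 h at room temperature; inhibition of VIP-induced recruitment reported as % activity.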

For assay [2], the target named is T1, VIPR2. Description: % Activity: inhibition of VIP-induced cAMP elevation and β-arrestin recruitment (Table 2). The essentials: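 cAMP: HEK293 stably expressing hVIPR2, inhibitor plus VIP 30 min, cAMP by HTRF (665/620 nm ratio ×10,000). β-arrestin: HEK293 with β-arrestin2-β-gal-EA, transiently transfected with VIPR2-ProLink; inhibitor 2 h at 37° C, enzyme complementation read by luminescence.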
On the technique in general: Recruitment of arrestin is a read-out of receptor activation apart from second messengers.

For assay [3], the target named is T1, VIPR2. As to the kind of experiment: Inhibition of VIP-induced cAMP elevation (% Activity cAMP). As to conditions: Batch 1. The essentials:
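HEK293 cells stably transfected with human VIPR2 were incubated with inhibitor and VIP for 30 min, then cAMP was detected by HTRF after at least 1 h at room temperature. The 665/620 nm ratio ×10,000 was calculated.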

Structures are written as SMILES.

Broadly, the inhibition is the drop in the measured response relative to a control, in per cent. In the case of `N#Cc1ccc(S(=O)(=O)NC[C@@H](O)C[C@@H](Cc2ccccc2)C(=O)N[C@H]2c3ccccc3C[C@H]2O)cc1` [C], in assay [1], at 0.5 µM the inhibition was 38.5%, 1 µM produced 59.5% inhibition and at 5 µM the inhibition was 90.4%. Also, the “% Activity” value in assay [2] is listed as 91.75%. In assay [3], this compound gave an inhibition at 0.5 µM of 27.3%, an inhibition at 1 µM of 43.6% and an inhibition at 5 µM of 93.1%.

In assay [1], `CC(C)c1ccc(S(=O)(=O)NC[C@@H](O)C[C@@H](Cc2ccccc2)C(=O)N[C@H]2c3ccccc3C[C@H]2O)cc1` [Compound A10] registered an inhibition at 0.5 µM of 31.5%, an inhibition at 1 µM of 63.1% and an inhibition at 5 µM of 87.7%. For the same compound, the “% Activity” value in assay [2] amounted to 92.95%. In assay [3], this compound returned an inhibition at 0.5 µM of 36.5%, an inhibition at 1 µM of 44.2% and an inhibition at 5 µM of 98.2%.

In assay [1], `COc1ccc(S(=O)(=O)NC[C@@H](O)C[C@@H](Cc2ccccc2)C(=O)N[C@H]2c3ccccc3C[C@H]2O)cc1` [E] registered an inhibition at 0.5 µM of 54.1%, an inhibition at 1 µM of 76.7% and an inhibition at 5 µM of 89.4%. Moreover, the “% Activity” value in assay [2] is reported as 91.6%. Also, in assay [3], at 0.5 µM the inhibition was 33.9%, 1 µM produced 45.9% inhibition and 5 µM produced 93.8% inhibition.

In the case of `O=C(N[C@H]1c2ccccc2C[C@H]1O)[C@H](Cc1ccccc1)C[C@H](O)CNS(=O)(=O)c1ccc(C(F)(F)F)cc1` [F], in assay [1], at 0.5 µM the inhibition was 58.1%, the inhibition at 1 µM is 83% and at 5 µM the inhibition was 92.9%. The “% Activity” value in assay [2] was 95.7%. In assay [3], this compound registered an inhibition at 0.5 µM of 42%, an inhibition at 1 µM of 63.1% and an inhibition at 5 µM of 98.5%.

In assay [1], `Cc1ccc(S(=O)(=O)NC[C@@H](O)C[C@@H](Cc2ccccc2)C(=O)N[C@H]2c3ccccc3C[C@H]2O)cc1` [I] returned an inhibition at 0.5 µM of 62.8%, an inhibition at 1 µM of 80.4% and an inhibition at 5 µM of 90%. Moreover, the “% Activity” value in assay [2] turned out to be 94.1%. For the same compound, in assay [3], testing at 0.5 µM gave an inhibition of 42.2%, the inhibition at 1 µM is 63.5% and the inhibition at 5 µM is 98.2%.

In assay [1], `CC(=O)c1ccc(S(=O)(=O)NC[C@@H](O)C[C@@H](Cc2ccccc2)C(=O)N[C@H]2c3ccccc3C[C@H]2O)cc1` [K] came in with an inhibition at 0.5 µM of 58.3%, an inhibition at 1 µM of 78% and an inhibition at 5 µM of 88.7%. The “% Activity” value in assay [2] is 92.35%. In assay [3], this compound had an inhibition at 0.5 µM of 38.6%, an inhibition at 1 µM of 61.1% and an inhibition at 5 µM of 96%.
